The text below walks through data of patent US7384558B2, “Compositions capable of inhibiting reactive oxygen and carbonyl species” (Baxter International Inc., priority 2004, dated 2008).

Values joined by “and” are separate entries in the source; they are usually repeats but may differ in a detail not shown here. Equal values may be shown once.

The nature of this test: TEAC (Trolox equivalent antioxidant activity) ABTS decolorization assay. The conditions noted are these: for antioxidant activity as compared to the Vitamin E standard compound (Trolox): Table 1, statement in words; for TEAC (Ratio % Inhibition): ratio of % inhibition of antioxidant compound / % inhibition of Trolox; for TEAC (Slope): relative to Trolox as standard, slope of % inhibition vs concentration. How it is done:
Tests were conducted to evaluate the antioxidant and carbonyl trapping properties of therapeutic compositions according to various embodiments of the present invention. A Trolox equivalent antioxidant activity (TEAC) test was conducted to assess the antioxidant properties as described below in greater detail.
The TEAC antioxidant activity was measured by the ABTS [2,2′-Azinobis-(3-ethylbenzothiazoline-6-sulphonic acid)] decolorization assay. In this method, a stable radical (ABTS radical cation) is formed, and the adsorption maxima is determined. See, for example, R. Ree, N. Pellegrini, A. Proteggente, A. Pannala, M. Yang and C. Rice-Evans, Antioxidant activity applying an improved ABTS radical cation decolorization assay, Free Rad. Biol. & Med., 26 (9/10), 1231-1237 (1999). The addition of antioxidant to the pre-formed radical cation reduces it to an extent and on a time-scale depending on the antioxidant activity, the concentration of the antioxidant and the duration of the reaction. Thus, the extent of reduction (decolorization) as percentage inhibition of the ABTS radical cation is determined as a function of concentration and time and calculated relative to the reactivity of Trolox as a standard under the same conditions. The TEAC value is calculated by the ratio of % of Inhibition of antioxidant compound/% Inhibition of Trolox.

Turning to “N-[2-(6-Hydroxy-tetramethylchroman-2-yl)ethyl]-N′-(penicillamyl)-piperazine [VE-PEN-1]”, the “antioxidant activity as compared to the Vitamin E standard compound (Trolox)” value is recorded as “enhanced antioxidant activity”, the “TEAC (Ratio % Inhibition)” value is listed as 1.6-2.1 and the “TEAC (Slope)” value is given as 1.3(r2 = 0.9996).
In the case of `Cc1c(C)c2c(c(C)c1O)CCC(C)(CCON)O2` (centres unmarked) [VE-ONH2-1, 2-(6-Hydroxy-2,5,7,8-tetramethylchroman-2-yl)-1-(aminooxy)ethane], the “TEAC (Ratio % Inhibition)” value was 0.9-1.0 and 0.5-0.8; the “TEAC (Slope)” value was 0.9(r2 = 0.9948) and 0.8(r2 = 0.9997).
For the compound `Cc1c(C)c2c(c(C)c1O)CCC(C)(CCN1CCN(C(=O)[C@@H](N)CS)CC1)O2` (some centres unmarked) [VE-CYS-1, N-[2-(6-Hydroxy-tetramethylchroman-2-yl)ethyl]-N′-(cysteinyl)-piperazine], the “antioxidant activity as compared to the Vitamin E standard compound (Trolox)” value is “enhanced antioxidant activity”, the “TEAC (Ratio % Inhibition)” value is recorded as 1.4-1.5 and the “TEAC (Slope)” value is reported as 1.4(r2 = 0.9997).
